In the first assay the test system is L-M cells. As to the kind of experiment: NGF production and secretion by mouse L-M cells (NGF promoter activity), NGF level by enzyme immunoassay. The conditions noted are these: 24 h, read-out: % Control (NGF produced and secreted relative to cells not treated with the test compounds). It is filed as cell-based. An excerpt:
Furukawa et al. have reported that fibroblast-forming L-M cells from mouse connective tissue can produce and secrete a relatively large amount of NGF, and that catecholamines accelerate such production and secretion of NGF (J. Biol. Chem., 261, 6039-6047, 1986). […] The test compounds of this invention were employed at 10 γ/ml, and the known compounds were employed at 20 γ/ml.
Culture medium 199 containing 0.5% peptone was used for culturing L-M cells (for the culture medium 199, see, for instance, Morgan et al., proc. Soc. Exp. Biol. Med., 73, 1 (1950) or Morgan et al. J. Natl. Cancer Inst., 16, 557 (1955). About […] of L-M cells were placed in each well of a culture plate with 24 wells, and cultured using a CO2 incubator (37° C., 5% CO2) until confluence. After removing the culture medium, the cultured cells were washed once with a wash solution which was 199 culture medium containing 0.5% bovine serum albumin (Fraction V, Sigma). The test compounds were added to a specified concentration to a 199 culture medium containing 0.5% bovine serum albumin, and used to treat 0.5 ml of L-M cells. After culturing the L-M cells in a CO2 incubator for 24 hours, the medium was recovered and the NGF level was determined.
NGF was quantitatively determined using an enzyme immunoassay [Korshing, Thoenen, et al. Proc. Natl. Acad. Sci. USA, 80, 3513-3516, (1983)]. 75 μl of a solution of anti-mouse β-NGF antibody (0.3 μg/ml, pH 9.6; Boehringer Mannheim) was piperted into each well of a polystyrene plate with 96 wells. After allowing the plate to stand at room temperature for an hour, the antibody was removed by washing three times with the wash solution. 50 μl of a solution of standard β-NGF (Wako Pure Chemical Industries Ltd.) or of the recovered medium was piperted into the wells. After allowing the plate to stand for […] at room temperature,the standard β-NGF or test solution was removed and each well was washed three times. 50 μl of a solution of β-NGF monoclonal antibody (100 mU/ml, pH 7.0; BoehringerMannheim) labelled with β-galactosidase was piperted into each well. After allowing the plate to stand at 4° C. for 15-18 hours, enzyme labelled antibody was removed and the wells washed three times followed by pipetting 100 μl of a solution of chlorophenol red-β-D-galactopyranoside (1 mg/ml, pH 7.3; BoehringerMannheim) into each well. Color was allowed to develop (after 2-3 hours at room temperature), and the absorbance was determined at 570 nm.
The amount of NGF was calculated from a standard curve. The results are expressed as a relative value (%) which is relative to the amount of NGF produced and secreted by cells treated not with the test compounds. The numerical values (% Control) are expressed by the mean value in the 3 wells of the control (without addition of the test compounds).
Regarding `CNC[C@H](O)c1ccc(O)c(O)c1` [epinephrine, reference compound], the activity at 20 µg/mL was 140 ± 24%.

The same assay, now with this note: known compounds at 20 γ/ml, L-M cells, 24 hours, 37° C., read-out: % Control (NGF produced and secreted relative to cells not treated with the test compounds).
In the case of `O=C(O)/C=C/c1ccc(O)c(O)c1` [caffeic Acid, reference compound], the activity at 20 µg/mL is 123 ± 14%.

As for `N[C@@H](Cc1ccc(O)c(O)c1)C(=O)O` [L-DOPA, reference compound], the activity at 20 µg/mL turned out to be 117 ± 7%.

As for `CC(C)NCC(O)c1ccc(O)c(O)c1` (stereo not drawn) [isoproterenol, reference compound], the activity at 20 µg/mL was 168 ± 22%.

Staying with this assay, now noted: test compounds of this invention at 10 γ/ml, L-M cells, 24 hours, 37° C., read-out: % Control (NGF produced and secreted relative to cells not treated with the test compounds).
In the case of `Nc1ccc(CCC(=O)N(c2ccccc2)c2ccccc2)cc1N` [Example 40, N,N-Diphenyl-3-(3,4-diaminophenyl) propionamide], the activity at 10 µg/mL amounted to 276%.

With `Nc1ccc(CCC(=O)Nc2cnc3ccccc3c2)cc1N` [Example 34, N-(3-Quinolyl)-3-(3,4-diaminophenyl)propiomide], the activity at 10 µg/mL came to 606%.

Turning to `Nc1ccc(CCC(=O)Nc2ccc(C(=O)c3ccccc3)cc2)cc1N` [Example 43, N-(4-Benzoylphenyl)-3-(3,4-diaminophenyl)propionamide], the activity at 10 µg/mL is 491%.

For `Nc1ccc(CCC(=O)NC23CC4CC(CC(C4)C2)C3)cc1N` [Example 22, N-(1-Adamantyl)-3-(3,4-diaminophenyl)propionamide], the activity at 10 µg/mL was determined as 380%.

For `Nc1cc(CCC(=O)NC2CCc3ccccc32)ccc1O` (stereo not drawn) [Example 53, N-(1-Indanyl)-3-(4-hydroxy-3-aminophenyl)propionamide], the activity at 10 µg/mL was 315%.

Values taken from patent US5614521A, “Benzene derivatives having NGF production-promoting activity” (Sankyo Company, Limited, priority 1991, dated 1997).
